Article PMC10214531 (ACS Central Science, 2023)

Experiments:
Assay type in all cases: cell-based, human
GLP-1R R344A = test: cAMP accumulation assay (GloSensor)
GLP-1R F169 = test: G protein activation assay (BRET2 TRUPATH); details: agonist GLP-1, HEK-293T, s.d.
Description: (§1) Cells were treated with 20 μL of each compound.
(§2) Significant difference is accepted at p < 0.05.

GLP-1R Y250 = test: G protein activation assay (BRET2 TRUPATH); details: agonist GLP-1, HEK-293T, s.d.
Description: as §1, §2

[1] = system: GLP-1R-mediated Gs activation, Gαs L394 to alanine; test: G protein activation assay (BRET2 TRUPATH), Gαs mutant L394 to alanine; details: Gαs L394 replaced by alanine, vs WT; HEK-293T
Description: as §1, §2

[2] = system: GLP-1R-mediated Gs activation, Gαs L394 and L393 substituted; test: G protein activation assay (BRET2 TRUPATH), Gαs double mutant L393 and L394; details: Gαs L394 and L393 both substituted, vs WT; HEK-293T
Description: as §1, §2

[3] = system: GLP-1R-mediated Gs activation, Gαs truncation of residues 2-8; test: G protein activation assay (BRET2 TRUPATH), Gαs truncated 2-8; details: Gαs truncation of residues 2-8, vs WT, HEK-293T
Description: as §1, §2

[4] = system: GLP-1R-mediated Gs activation, Gαs truncation of residues 2-10; test: G protein activation assay (BRET2 TRUPATH), Gαs truncated 2-10; details: Gαs truncation of residues 2-10, vs WT, HEK-293T
Description: as §1, §2

[5] = system: GLP-1R-mediated Gs activation, Gαs alanine mutants; test: G protein activation assay (BRET2 TRUPATH), alanine scan of 41 Gαs residues; details: 16 of 41 Gαs alanine mutants, vs WT
Description: as §1, §2

GLP-1R alanine mutants = test: cAMP accumulation assay (GloSensor), alanine scan of 37 GLP-1R residues
[6] = system: GLP-1R mutants of L172, C174, N177, Y250 and M340; test: cAMP accumulation assay, mutants of functional residues except F169; details: mutants of six functional residues except F169; four independent experiments
Text: The cDNA of human GLP-1R was cloned into vector pcDNA 3.1 or pRK. In the cAMP assay, the GLP-1R sequence comprises the native signal peptide (residues 1–23) and a FLAG tag. In flow cytometry analysis, the GLP-1R sequence contains the same native signal peptide, followed by a FLAG or HA tag. Mutations or deletions for the cAMP assay and flow cytometry were generated using seamless cloning with KOD-Plus-Neo (TOYOBO) and confirmed by DNA sequencing.
After overnight of culture, specified amounts of wild-type or mutant GLP-1R and 0.5 μg of pGloSensor cAMP plasmid were cotransfected into HEK-293T cells using calcium phosphate. After 24 h of culture, the transfected cells were seeded into 384-well plates (12 000 cells per well). cAMP accumulation was measured using the GloSensor cAMP assay kit (Promega) according to the manufacturer’s instructions. In brief, transfected cells were incubated for 30 min in GloSensor cAMP reagent at 37 °C and room temperature.
as §2

| Molecule | EC50 (GLP-1R R344A; agonist GLP-1, HEK-293T, 15 min, 25 °C, surface expression 31±4.03 % WT) | Emax (GLP-1R R344A; agonist GLP-1, cAMP accumulation, HEK-293T) | Emax (GLP-1R F169) | Emax (GLP-1R Y250) | GLP-1 efficacy in inducing G protein dissociation [1] | GLP-1 activity in G protein dissociation [2] | Gs protein activation mediated by GLP-1R [3] | Gs protein activation mediated by GLP-1R [4] | GLP-1 efficacy in Gs activation [5] | GLP-1 potency in cAMP signaling induction (GLP-1R alanine mutants; 18 of 37 GLP-1R alanine mutants, vs WT) | GLP-1 efficacy (cAMP) (GLP-1R alanine mutants; two mutants with abnormal expression (gray columns in Figure 5b)) | cAMP signaling vs WT [6] |
| --- | --- | --- | --- | --- | --- | --- | --- | --- | --- | --- | --- | --- |
| CC[C@H](C)[C@H](NC(=O)[C@H](Cc1ccccc1)NC(=O)[C@H](CCC(=O)O)NC(=O)[C@H](CCCCN)NC(=O)[C@H](C)NC(=O)[C@H](C)NC(=O)[C@H](CCC(N)=O)NC(=O)CNC(=O)[C@H](CCC(=O)O)NC(=O)[C@H](CC(C)C)NC(=O)[C@H](Cc1ccc(O)cc1)NC(=O)[C@H](CO)NC(=O)[C@H](CO)NC(=O)[C@@H](NC(=O)[C@H](CC(=O)O)NC(=O)[C@H](CO)NC(=O)[C@@H](NC(=O)[C@H](Cc1ccccc1)NC(=O)[C@@H](NC(=O)CNC(=O)[C@H](CCC(=O)O)NC(=O)[C@H](C)NC(=O)[C@@H](N)Cc1c[nH]cn1)[C@@H](C)O)[C@@H](C)O)C(C)C)C(=O)N[C@@H](C)C(=O)N[C@@H](Cc1c[nH]c2ccccc12)C(=O)N[C@@H](CC(C)C)C(=O)N[C@H](C(=O)N[C@@H](CCCCN)C(=O)NCC(=O)N[C@@H](CCCNC(=N)N)C(N)=O)C(C)C [GLP-1] | 0.0865 ± 0.0099 nM | 80±4 WT % | 101.04±3.59 % WT | 13.84±2.59 % WT | decrease in GLP-1 efficacy | completely abolished the GLP-1 activity | significantly attenuated the Gs protein activation | significantly attenuated the Gs protein activation | significant reduction of GLP-1 efficacy in Gs activation for 16 mutants | significant reduction of GLP-1 potency in cAMP signaling induction for 18 mutants | deficient GLP-1 efficacy |  |
| N#Cc1ccc(COc2cccc(C3CCN(Cc4nc5ccc(C(=O)O)cc5n4C[C@@H]4CCO4)CC3)n2)c(F)c1 [PF 06882961] |  |  |  |  |  |  |  |  |  |  |  | attenuated cAMP signaling |
| exendin-4: another peptide agonist (exendin-4) |  |  |  |  |  |  |  |  |  |  |  | attenuated cAMP signaling |
